From PMC4102417 (PLoS Neglected Tropical Diseases, 2014)
pEC50: −log10 of the molar value. Structures can show the parent of a compound that is named as a salt. Where two headings read alike, the source gives them in different places.

Assays:
[1] = in vitro; type: cell-based, murine; details: mouse
[2] = tested on: 3T3 fibroblast cells; experiment: in vitro; type: cell-based, murine; details: for CC50: 3T3 fibroblasts, 72 hours, separate assays separated by semicolons, read-out: Mammalian cell CC50; for activity at 10 µM: Mus musculus, NIH3T3, 72 h, read-out: Mammalian (3T3) cell % growth at 10 uM
[3] = tested on: T. cruzi (Tulahuen strain); experiment: microbe, parasite or virus in culture; type: cell-based, Trypanosoma cruzi; details: for activity at 10 µM: Table S2, read-out: T. cruzi % growth @ 10 uM (Amastigotes); for pEC50: read-out: T. cruzi EC50
Method in brief: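 Tulahuen parasites expressing beta-galactosidase were added (1×10^4 trypomastigotes/well) to 3T3 fibroblasts plated 24 h earlier, 4 h before compound (10 µM final).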

[4] = 3T3 fibroblasts, 72 hours, separate assays separated by semicolons, read-out: Mammalian cell CC50
[5] = Trypanosoma cruzi, TULAHUEN, Fibroblast, 120 h
[6] = Trypanosoma cruzi, TULAHUEN, Fibroblast, 120 h, intracellular amastigotes, 5 days, separate assays separated by semicolons
[7] = average mammalian cell CC50 divided by average T. cruzi EC50
[8] = intracellular amastigotes, 5 days, separate assays separated by semicolons
[9] = Trypanosoma cruzi, TULAHUEN, Fibroblast, Table S2, amastigotes

Structure (SMILES) | activity at 10 µM ([2]; 10 uM, Table S2) [%] | activity at 10 µM [3, 5] [%] | pEC50 [3, 6] | further results
CN(C)CCC=C1c2ccccc2CCc2ccccc21 [Amitriptyline, dimethyl(3-{tricyclo[9.4.0.0^{3,8}]pentadeca-1(15),3,5,7,11,13-hexaen-2-ylidene}propyl)amine] | 100 | 15.7 | 5.45 | CC50 [1, 4]: 36300 nM; CC50 [2]: 22 µM; Selectivity index [3, 7]: 5.7; pEC50 [3, 8]: 5.18
N=C(N)c1ccc(OCCCCCOc2ccc(C(=N)N)cc2)cc1 [Pentamidine, 2-hydroxyethane-1-sulfonic acid; 4-{[5-(4-carbamimidoylphenoxy)pentyl]oxy}benzene-1-carboximidamide] | 94.8 | 17.6 | 6.74 | CC50 [1, 4]: > 50000 nM; pEC50 [3, 9]: 6.74; Selectivity index [3, 7]: >276
CN(C)c1ccc(O)c2c1CC1CC3C(N(C)C)C(O)=C(C(N)=O)C(=O)C3(O)C(O)=C1C2=O.Cl (centres unmarked) [Minocycline, 4,7-bis(dimethylamino)-3,10,12,12a-tetrahydroxy-1,11-dioxo-1,4,4a,5,5a,6,11,12a-octahydrotetracene-2-carboxamide hydrochloride] | 83.2 | 10.2 | 5.01 | CC50 [1, 4]: > 50000 nM; Selectivity index [3]: >5.1
Cl.OC(c1cc(C(F)(F)F)nc2c(C(F)(F)F)cccc12)C1CCCCN1 (centres unmarked) [Mefloquine, [2,8-bis(trifluoromethyl)quinolin-4-yl](piperidin-2-yl)methanol hydrochloride] | 94.7 | 2.6 | 5.21 | CC50 [1, 4]: 12100 nM; Selectivity index [3, 7]: 2.0
NCCC(O)(P(=O)(O)O)P(=O)(O)O [Pamidronate] | – | – | 5.52 | CC50 [1, 4]: 25700 nM; Selectivity index [3, 7]: 8.6
CN(C/C=C/C#CC(C)(C)C)Cc1cccc2ccccc12 [Terbinafine] | – | – | 4.76 | CC50 [1, 4]: 51000 nM; Selectivity index [3]: 2.9
CN(C)CC/C=C1/c2ccccc2Sc2ccc(Cl)cc21 [Chlorprothixene, {3-[(9Z)-2-chloro-9H-thioxanthen-9-ylidene]propyl}dimethylamine] | 97.1 | 1.8 | 5.63 | CC50 [1, 4]: 12900 nM; Selectivity index [3]: 5.2; pEC50 [3, 8]: 5.59
CSc1ccc2c(c1)N(CCC1CCCCN1C)c1ccccc1S2 (centres unmarked) [Thioridazine, 10-[2-(1-methylpiperidin-2-yl)ethyl]-2-(methylsulfanyl)-10H-phenothiazine] | 45.7 | 19.1 | – | CC50 [1, 4]: 6200 nM; CC50 [2]: 8.66 µM
CCC(C)(C)C(=O)OC1CC(C)C=C2C=CC(C)C(CCC3CC(O)CC(=O)O3)C21 (centres unmarked) [Simvastatin, 8-[2-(4-hydroxy-6-oxooxan-2-yl)ethyl]-3,7-dimethyl-1,2,3,7,8,8a-hexahydronaphthalen-1-yl 2,2-dimethylbutanoate] | – | – | 6.40 | CC50 at 72 h [1, 4]: 4 µM
Clc1ccc2c(c1)C(N1CCNCC1)=Nc1ccccc1O2 [AMOXAPINE, 13-chloro-10-(piperazin-1-yl)-2-oxa-9-azatricyclo[9.4.0.0^{3,8}]pentadeca-1(15),3,5,7,9,11,13-heptaene] | 98 | 11.7 | – | –
CC1(C)C(=O)C=CC2(C)C1CC(=O)C1(C)C2CCC2(C)C(c3ccoc3)OC(=O)C3OC321 (centres unmarked) [DEACETOXY-7-OXOGEDUNIN, 7-(furan-3-yl)-1,8,12,16,16-pentamethyl-3,6-dioxapentacyclo[9.8.0.0^{2,4}.0^{2,8}.0^{12,17}]nonadec-13-ene-5,15,19-trione] | 75.8 | 4.9 | – | –
O=c1cc(-c2ccccc2)oc2c(O)c(O)ccc12 [7,8-DIHYDROXYFLAVONE, 7,8-dihydroxy-2-phenyl-4H-chromen-4-one] | 72.6 | 1.3 | – | –
OCCN1CCN(CCCN2c3ccccc3Sc3ccc(C(F)(F)F)cc32)CC1 [FLUPHENAZINE, 2-(4-{3-[2-(trifluoromethyl)-10H-phenothiazin-10-yl]propyl}piperazin-1-yl)ethan-1-ol] | 100 | 2.2 | – | –
O=C(/C=C(/O)c1ccccc1)c1ccccc1O [2',beta-DIHYDROXYCHALCONE, (2E)-3-hydroxy-1-(2-hydroxyphenyl)-3-phenylprop-2-en-1-one] | 100 | 10 | – | –
CCC1(O)C(=O)OCc2c1cc1n(c2=O)Cc2cc3ccccc3nc2-1 (centres unmarked) [CAMPTOTHECIN, 19-ethyl-19-hydroxy-17-oxa-3,13-diazapentacyclo[11.8.0.0^{2,11}.0^{4,9}.0^{15,20}]henicosa-1(21),2,4(9),5,7,10,15(20)-heptaene-14,18-dione] | – | 3.9 | – | activity at 10 µM [2]: 94.3%
O=c1cc(-c2ccc(O)cc2)oc2cc(O)cc(O)c12 [APIGENIN, 5,7-dihydroxy-2-(4-hydroxyphenyl)-4H-chromen-4-one] | 73.6 | 17.7 | – | –
CCN(CC)CCOc1ccc2c(c1)C(=O)c1cc(OCCN(CC)CC)ccc1-2 [TILORONE, 2,7-bis[2-(diethylamino)ethoxy]-9H-fluoren-9-one] | 89 | 7.8 | – | –
O=C(CCCN1CCC2(CC1)C(=O)NCN2c1ccccc1)c1ccc(F)cc1 [SPIPERONE, 8-[4-(4-fluorophenyl)-4-oxobutyl]-1-phenyl-1,3,8-triazaspiro[4.5]decan-4-one] | 94.7 | 17.1 | – | –
CC(=O)OC1CC2C(C)(C)C(=O)C3OC3C2(C)C2CCC3(C)C(c4ccoc4)OC(=O)C4OC43C12C (centres unmarked) [EPOXYGEDUNIN, 7-(furan-3-yl)-1,8,12,17,17-pentamethyl-5,16-dioxo-3,6,14-trioxahexacyclo[9.9.0.0^{2,4}.0^{2,8}.0^{12,18}.0^{13,15}]icosan-20-yl acetate] | 73.4 | 4.4 | – | –
COc1ccc(Cc2nccc3cc(OC)c(OC)cc23)cc1OC [PAPAVERINE, 1-[(3,4-dimethoxyphenyl)methyl]-6,7-dimethoxyisoquinoline hydrochloride] | 93.1 | 8.4 | – | –
CC1C=CC=CC=CC=CC=CC=CC=CC(OC2OC(C)C(O)C(N)C2O)CC2OC(O)(CC(O)CC(O)C(O)CCC(O)CC(O)CC(=O)OC(C)C(C)C1O)CC(O)C2C(=O)O (centres unmarked) [AMPHOTERICIN B, 33-[(4-amino-3,5-dihydroxy-6-methyloxan-2-yl)oxy]-1,3,5,6,9,11,17,37-octahydroxy-15,16,18-trimethyl-13-oxo-14,39-dioxabicyclo[33.3.1]nonatriaconta-19,21,23,25,27,29,31-heptaene-36-carboxylic acid] | 89.7 | 20.6 | – | pEC50 [3, 9]: 10.40; pEC50 ([3]; Trypanosoma cruzi, TULAHUEN, Fibroblast): 7.40
CNc1ccccc1C(=O)N1CCc2c([nH]c3ccccc23)C1=O [RHETSININE, 2-{[2-(methylamino)phenyl]carbonyl}-1H,2H,3H,4H,9H-pyrido[3,4-b]indol-1-one] | 75.7 | 5.9 | – | –
CC1(C)C(=O)C2OC2C2(C)C1CC(O)C1(C)C2CCC2(C)C(c3ccoc3)OC(=O)C3OC321 (stereo not drawn) [1,2alpha-EPOXYDEACETOXYDIHYDROGEDUNIN, 7-(furan-3-yl)-20-hydroxy-1,8,12,17,17-pentamethyl-3,6,14-trioxahexacyclo[9.9.0.0^{2,4}.0^{2,8}.0^{12,18}.0^{13,15}]icosane-5,16-dione] | 77.3 | 7.8 | – | –
Cc1nc2ccccn2c(=O)c1CCN1CCC(C(=O)c2ccc(F)cc2)CC1 [PIRENPERONE, 3-(2-{4-[(4-fluorophenyl)carbonyl]piperidin-1-yl}ethyl)-2-methyl-4H-pyrido[1,2-a]pyrimidin-4-one] | 91.6 | 23.1 | – | –
Cl.Fc1ccc(C2CCNCC2COc2ccc3c(c2)OCO3)cc1 (centres unmarked) [Paroxetine, 3-[(2H-1,3-benzodioxol-5-yloxy)methyl]-4-(4-fluorophenyl)piperidine hydrochloride] | 100 | 6.8 | 5.48 | CC50 ([1]; Mammalian cell CC50 (nM)): 18800 nM; Selectivity index [3]: 4.2; pEC50 [3, 8]: 5.25
COc1ccc(C(=O)c2ccc(O)cc2)c(O)c1O [2,3,4'-TRIHYDROXY-4-METHOXYBENZOPHENONE] | 86.8 | 3.6 | – | –
Clc1ccccc1C(c1ccccc1)(c1ccccc1)n1ccnc1 [CLOTRIMAZOLE, 1-[(2-chlorophenyl)diphenylmethyl]-1H-imidazole] | 100 | 10.2 | – | –
